Earlier results as cited in patent EP3728136B1 (Easymining Sweden AB, priority 2017, dated 2019).

Test system: biogas-producing bacteria
Details: concentration of free ammonia increased to 620 mg/l; Siles et al., 2010

Compound: N [ammonia]
- gradual decrease of biogas production: 21%
